The values that follow come from patent US11999758B2, “Inhibitors of the YAP/TAZ-TEAD interaction and their use in the treatment of cancer” (INVENTIVA, priority 2018, dated 2024).

By pIC50 is commonly meant the IC50 on a negative log10 scale, so that one unit is a factor of ten.

pIC50: −log10 of the molar value.

In this experiment the target is T1, YAP-TEAD interaction (Homo sapiens, UniProt P28347).
T1 construct: expressed in transfected cells; host or cells: HEK293 GripTite 293 MSR (Invitrogen R795-07)
Put plainly: Cell-based TEAD-GAL4 transactivation assay (luciferase reporter). The note with it: HEK293 cells transfected with TEAD1-Gal4, YAP mutant (S127A, S397A) and luciferase reporter, compounds 0.1 μM to 30 μM; for Emax: HEK293, 24 h, read-out: TEAD-GAL4 Transactivation activity Max Act; for pIC50: 24 h. As for the experimental part: To identify inhibitors of YAP-TEAD interaction, a transient transactivation assay was carried out on HEK293 cell line (HEK293 GripTite™ 293 MSR (Invitrogen R795-07)) using plasmids containing the full length TEAD1 sequences, the full length YAP mutant (S127A, S397A) and a luciferase gene reporter. All expression constructs were performed into a pSG5 backbone plasmid in which the SV40 promoter was replaced by the CMV promoter. The TEAD1 construct was prepared by cloning the full-length human TEAD1 cDNA in fusion with the Gal4 DNA Binding Domain (AA 1-148) into pSG5_CMV to create the TEAD1 (FL)_hum_pSG5Gal4_CMV. The full-length YAP mutant (S127A, S397A) was also cloned into pSG5_CMV to create the YAP (FL)_hum_pSG5_mutS127A_S397A_CMV. The reporter plasmid GAL4(5×RE)_TK(−105/+56)_pGL3-Basic contains 5 copies of the GAL4 responsive element (5′-TCGGAGGACAGTACTCC-3′) upstream of the thymidine kinase (TK) promoter (−105/+56) inserted in a pGL3-Basic vector. To evaluate the selectivity of our compounds in blocking the YAP-TEAD interaction, a counter-screening protein-protein interaction transactivation assay was also established. Briefly, two other expression plasmids, the pBD-P53 which expresses the P53 (AA 72-390) in fusion with Gal4 and the pAD-SV40T which expresses the SV40 large T antigen (AA 84-708,AgT), were created. HEK293 cells were seeded at 5×10^4 cells/well in 96 well plates (assay plates) in DMEM medium containing 4.5 g/L D-glucose, 10% high inactivated (HI) fetal bovine serum 1% Glutamax, 1% non-essential amino acid and 1% sodium pyruvate and 0.5% penicillin/streptomycin at 37° C. in a humidified atmosphere of 8% CO2. After 24 h, transfections were performed using Jet-PEI as transfectant (101B-010 Polyplus Transfection), according to the instructions of the manufacturer (N/P=10) and a ratio YAP/TEAD=10 (per well: 50 ng of YAP(FL), 5 ng of TEAD(FL) and 50 ng of reporter plasmid). Six hours after cell transfection, the plates (‘assay plate’) were washed with 100 μl PBS per well and cells were treated with compounds in semi-log from 0.1 μM to 30 μM or DMSO 0.5% as control in DMEM, 4.5 g/L D-Glucose without phenol red, 0.3% BSA, 1% glutamax, 1% NEAA, 1% sodium pyruvate. 24 h later, the luciferase activity was determined after addition of 100 μl of Steady Glo™ luciferase assay system (Promega E2550) according to the manufacturer's directions. Luciferase activity in cell extracts was measured by reading luminescence using the Envision device.
The cellular response was determined by fitting the concentration response curves using a 3-parameter curve fit equation and determining the concentration that inhibited the luciferase activity by 50%.
Background: In a reporter assay the amount or activity of a reporter protein is the signal.

T1 sequence (P28347 whole entry): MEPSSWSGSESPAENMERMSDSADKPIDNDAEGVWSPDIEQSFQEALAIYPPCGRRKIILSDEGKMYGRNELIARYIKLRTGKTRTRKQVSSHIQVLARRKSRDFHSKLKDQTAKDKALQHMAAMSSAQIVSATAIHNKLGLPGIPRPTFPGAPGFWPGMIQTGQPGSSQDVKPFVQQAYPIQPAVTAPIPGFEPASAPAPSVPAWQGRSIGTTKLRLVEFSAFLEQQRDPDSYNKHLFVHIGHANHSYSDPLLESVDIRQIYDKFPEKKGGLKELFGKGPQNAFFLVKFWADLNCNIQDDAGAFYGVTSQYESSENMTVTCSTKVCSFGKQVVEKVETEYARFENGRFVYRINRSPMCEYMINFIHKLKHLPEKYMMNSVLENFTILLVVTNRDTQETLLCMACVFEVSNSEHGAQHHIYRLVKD

Consider `CCN(/N=C/c1ccc(B(O)O)c(OC)c1)c1ncnc2c(C)csc12` [Ex62, [4-[(E)-[ethyl-(7-methylthieno[3,2-d]pyrimidin-4-yl)hydrazono]methyl]-2-methoxy-phenyl]boronic acid], for which the Emax stood at 58% and the negative logarithm of the IC50 (pIC50) was 6.00.

In the case of `CC(C)CN(/N=C/c1ccc2c(c1)CCOB2O)C1=NS(=O)(=O)c2ccccc21` [Ex 46, N-[(E)-(1-hydroxy-3,4-dihydro-2,1-benzoxaborinin-6-yl)methyleneamino]-N-isobutyl-1,1-dioxo-1,2-benzothiazol-3-amine], the Emax was found to be 72%.

On to `COCCN(/N=C/c1ccc(B(O)O)c(OC)c1)c1ncnc2ccsc12` [Ex70, [2-methoxy-4-[(E)-[2-methoxyethyl(thieno[3,2-d]pyrimidin-4-yl) hydrazono]methyl]phenyl]boronic acid], for which the Emax came out at 87% and the pIC50 is 5.73.

As to `CCN(/N=C/c1ccc(B(O)O)c(OC)c1)C1=NS(=O)(=O)c2ccccc21` [Ex 4, [4-[(E)-[(1,1-dioxo-1,2-benzothiazol-3-yl)-ethyl-hydrazono]methyl]-2-methoxy-phenyl] boronic acid], the Emax was found to be 76% and the pIC50 is 5.21.

For the compound `CN(/N=C/c1ccc2c(c1)COB2O)c1ncnc2c1[nH]c(=O)n2C1CCC1` [Ex107, 9-cyclobutyl-6-[[(E)-(1-hydroxy-3H-2,1-benzoxaborol-5-yl)methyleneamino]-methyl-amino]-7H-purin-8-one], the Emax amounted to 87% and the pIC50 is 5.78.

As to `CCc1csc2c(N(C)/N=C/c3ccc4c(c3)COB4O)ncnc12` [Ex105, 7-ethyl-N-[(E)-(1-hydroxy-3H-2,1-benzoxaborol-5-yl)methyleneamino]-N-methyl-thieno[3,2-d]pyrimidin-4-amine], the Emax amounted to 83% and the pIC50 was 6.29.

`COc1cc(/C=N/N(CC(C)C)C2=NS(=O)(=O)c3ccccc32)ccc1B1OC(=O)CN(C)CC(=O)O1` [Ex 61, 2-[4-[(E)-[(1,1-dioxo-1,2-benzothiazol-3-yl)-isobutyl-hydrazono]methyl]-2-methoxy-phenyl]-6-methyl-1,3,6,2-dioxazaborocane-4,8-dione]: the Emax is 87% and the pIC50 is 5.18.

Turning to `CCN(/N=C/c1ccc2c(c1)COB2O)c1ncnc2c(C(=O)N(C)C)csc12` [Ex113, 4-[ethyl-[(E)-(1-hydroxy-3H-2,1-benzoxaborol-5-yl)methyleneamino]-amino]-N,N-dimethyl-thieno[3,2-d]pyrimidine-7-carboxamide], the Emax was 70% and the pIC50 was 5.28.

With `COc1cc(OC)c2c(c1)C(N(CC(C)C)/N=C/c1ccc(B(O)O)c(OC)c1)=NS2(=O)=O` [Ex 3, [4-[(E)-[(5,7-dimethoxy-1,1-dioxo-1,2-benzothiazol-3-yl)-isobutyl-hydrazono]methyl]-2-methoxy-phenyl]boronic acid], the Emax stood at 89% and the pIC50 is 5.58.

In the case of `CC(C)CN(/N=C/c1ccc2c(c1)COB2O)C1=NS(=O)(=O)c2ccccc21` [Ex 23, N-[(E)-(1-hydroxy-3H-2,1-benzoxaborol-5-yl)methyleneamino]-N-isobutyl-1,1-dioxo-1,2-benzothiazol-3-amine], the Emax was 88% and the pIC50 is 5.51.

Consider `CCN(/N=C/c1ccc2c(c1)COB2O)c1nc(C)nc2c(C)csc12` [Ex88, N-ethyl-N-[(E)-(1-hydroxy-3H-2,1-benzoxaborol-5-yl)methyleneamino]-2,7-dimethyl-thieno[3,2-d]pyrimidin-4-amine], for which the Emax was 80% and the pIC50 is 6.20.

With `COc1cnnc(N(C)/N=C/c2ccc3c(c2)COB3O)c1` [Ex 60, N-[(E)-(1-hydroxy-3H-2,1-benzoxaborol-5-yl)methyleneamino]-5-methoxy-N-methyl-pyridazin-3-amine], the Emax was found to be 79% and the pIC50 is 5.30.

Regarding `CCN(/N=C/c1ccc2c(c1)COB2O)c1ncnc2cc[nH]c12` [Ex81, N-ethyl-N-[(E)-(1-hydroxy-3H-2,1-benzoxaborol-5-yl)methyleneamino]-5H-pyrrolo[3,2-d]pyrimidin-4-amine], the Emax is 79% and the pIC50 was 5.76.

Regarding `Cc1ccc2c(c1)C(N(C)/N=C/c1ccc3c(c1)COB3O)=NS2(=O)=O` [Ex 36, N-[(E)-(1-hydroxy-3H-2,1-benzoxaborol-5-yl)methyleneamino]-N,5-dimethyl-1,1-dioxo-1,2-benzothiazol-3-amine], the Emax is 60%.

As for `CCN(/N=C/c1ccc2c(c1)COB2O)c1ncnc2cc(F)ccc12` [Ex89, N-ethyl-7-fluoro-N-[(E)-(1-hydroxy-3H-2,1-benzoxaborol-5-yl)-methyleneamino]quinazolin-4-amine], the Emax stood at 85% and the pIC50 is 6.09.

For the compound `CCOc1cc(/C=N/N(CC(C)C)C2=NS(=O)(=O)c3ccccc32)ccc1B(O)O` [Ex 14, [4-[(E)-[(1,1-dioxo-1,2-benzothiazol-3-yl)-isobutyl-hydrazono]methyl]-2-ethoxyphenyl]boronic acid], the Emax turned out to be 90%.

Take `COc1cc(/C=N/N(CC(C)C)c2ncnc3cc(C)sc23)ccc1B(O)O` [Ex69, [4-[(E)-[isobutyl-(6-methylthieno[3,2-d]pyrimidin-4-yl)hydrazono]methyl]-2-methoxy-phenyl]boronic acid]: the Emax worked out at 92% and the pIC50 was 5.63.

Turning to `CC1CCC(c2ccc3c(c2)COB3O)=NN1C1=NS(=O)(=O)c2ccccc21` (stereo not shown) [Ex 53, 3-[6-(1-hydroxy-3H-2,1-benzoxaborol-5-yl)-3-methyl-4,5-dihydro-3H-pyridazin-2-yl]-1,2-benzothiazole 1,1-dioxide], the Emax stood at 87% and the pIC50 was 5.52.

With `COCC1CC(n2c(=O)[nH]c3c(N(C)/N=C/c4ccc5c(c4)COB5O)ncnc32)C1` (stereo not shown) [Ex108, 6-[[(E)-(1-hydroxy-3H-2,1-benzoxaborol-5-yl)methyleneamino]-methyl-amino]-9-[3-(methoxymethyl)cyclobutyl]-7H-purin-8-one], the Emax is 82% and the pIC50 is 5.59.

In the case of `COc1cc(/C=N/N(CC(C)C)c2nc(C)nc3ccsc23)ccc1B(O)O` [Ex68, [4-[(E)-[isobutyl-(2-methylthieno[3,2-d]pyrimidin-4-yl)hydrazono]methyl]-2-methoxy-phenyl]boronic acid], the Emax came out at 84% and the pIC50 is 5.58.

As to `CC(C)CN(/N=C/c1ccc2c(c1)CCCOB2O)C1=NS(=O)(=O)c2ccccc21` [Ex 47, N-[(E)-(1-hydroxy-4,5-dihydro-3H-2,1-benzoxaborepin-7-yl)methyleneamino]-N-isobutyl-1,1-dioxo-1,2-benzothiazol-3-amine], the Emax was 73%.

As to `CC(C)CN(/N=C/c1ccc2c(c1)COB2O)C1=NS(=O)(=O)c2ccc(F)cc21` [Ex 28, 5-fluoro-N-[(E)-(1-hydroxy-3H-2,1-benzoxaborol-5-yl)methyleneamino]-N-isobutyl-1,1-dioxo-1,2-benzothiazol-3-amine], the Emax turned out to be 90% and the pIC50 is 5.56.

As for `CC1CCC(c2ccc3c(c2)COB3O)=NN1c1ncnc2occc12` (stereo not shown) [Ex117, 4-[6-(1-hydroxy-3H-2,1-benzoxaborol-5-yl)-3-methyl-4,5-dihydro-3H-pyridazin-2-yl]furo[2,3-d]pyrimidine], the Emax stood at 82% and the pIC50 was 6.16.

Consider `CCN(/N=C/c1ccc2c(c1)COB2O)c1ncnc2c(OC)cccc12` [Ex 34, N-ethyl-N-[(E)-(1-hydroxy-3H-2,1-benzoxaborol-5-yl)methyleneamino]-8-methoxy-quinazolin-4-amine], for which the Emax amounted to 81% and the negative logarithm of the IC50 (pIC50) is 5.95.

Take `COc1cc(/C=N/N(C)c2ncnc3c(OC)cccc23)ccc1B(O)O` [Ex 22, [2-methoxy-4-[(E)-[(8-methoxyquinazolin-4-yl)-methyl-hydrazono]-methyl]phenyl]boronic acid]: the Emax was found to be 97% and the negative-log IC50 (pIC50) is 5.59.
